From the supplement of paper PMC7017272
± gives the standard deviation of the averaged measurements. One block for each compound: values may come before it.

Legend:
Settings in all cases: treatment time: 3 days
UT-SCC-24A [1] = experiment: maximal % inhibition of viability relative to DMSO; higher = stronger effect
Experimental: (§1)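 HNSCC cell lines (500 cells/well, 384-well) were cultured on plastic, on top of (2D) or embedded (3D) in Matrigel or human leiomyoma matrix Myogel (500 ug/mL; Myogel 3D mixed with rat collagen I). Cells were treated for 3 days with 5 ten-fold concentrations of each drug, and viability was read by CellTiter-Glo. Viability was normalised to DMSO (0% inhibition) and 100 uM benzethonium chloride (100% inhibition) controls and fitted with the FIMM DSRT pipeline to give IC50 (nM), maximal % inhibition and the drug sensitivity score (DSS). Suffixes _1/_2/_3 on drug names are replicates.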

UT-SCC-106A = experiment: drug sensitivity score (DSS); higher = more sensitive; extreme values may be limits of the assay
In short: (§2)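 The FIMM pipeline was used to fit percent-inhibition dose–response curves, giving IC50, maximal inhibition and drug sensitivity score. Input data were CellTiter-Glo 2.0 luminescence readings, normalised to vehicle (0.1% DMSO) and cell-killing control wells, from HPV-negative HNSCC cell lines seeded at 500 cells/well in 384-well plates. Cells sat on plastic, on Matrigel or Myogel coatings (500 µg/mL), or within Matrigel or Myogel plus rat collagen I, and received compounds at five 10-fold concentrations for 3 days.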

UT-SCC-14 = experiment: as above
In short: as §2

UT-SCC-24B = experiment: as above
In short: as §2

UT-SCC-28 [2] = experiment: as above
In short: as §2

UT-SCC-40 = experiment: as above
In short: as §2

UT-SCC-42A [3] = experiment: as above
In short: as §2

UT-SCC-42B = experiment: as above
In short: as §2

UT-SCC-44 = experiment: as above
In short: as §2

UT-SCC-73 = experiment: as above
In short: as §2

UT-SCC-81 [4] = experiment: as above
In short: as §2

UT-SCC-8 = experiment: as above
In short: as §2

UT-SCC-28 [5] = experiment: relative IC50 (midpoint of the fitted curve; maximal inhibition may be below 50%); higher = less potent
In short: as §2

UT-SCC-42A [6] = experiment: as above
In short: as §2

UT-SCC-81 [7] = experiment: as above
In short: as §2

UT-SCC-24A [8] = experiment: relative IC50 (midpoint of the fitted curve; maximal inhibition may be below 50%); higher = less potent
Experimental: as §1

[9] = culture condition: embedded in Matrigel
[10] = culture condition: embedded in Myogel + collagen I
[11] = culture condition: on top of Matrigel
[12] = culture condition: on top of Myogel
[13] = culture condition: plastic 2D (no matrix)

relative IC50 (UT-SCC-28 [5]; [13]): 1.42 nM
relative IC50 (UT-SCC-42A [6]; [11]): 3.65 nM
relative IC50 (UT-SCC-81 [7]; [10]): 6.59 nM
relative IC50 (UT-SCC-81 [7]; [13]): 7.02 nM
relative IC50 (UT-SCC-24A [8]; [9]): 1.4 nM
relative IC50 (UT-SCC-24A [8]; [11]): 1.34 nM
relative IC50 (UT-SCC-24A [8]; [13]): 1.07 nM
Compound: CC(=O)Nc1cccc(-n2c(=O)n(C3CC3)c(=O)c3c(Nc4ccc(I)cc4F)n(C)c(=O)c(C)c32)c1 [Trametinib]
maximal % inhibition of viability (UT-SCC-24A [1]; [9]): 74.7 ± 4%
maximal % inhibition of viability (UT-SCC-24A [1]; [10]): 48.6 ± 6.4%
maximal % inhibition of viability (UT-SCC-24A [1]; [11]): 69.5 ± 5.2%
maximal % inhibition of viability (UT-SCC-24A [1]; [12]): 33.1 ± 9.5%
maximal % inhibition of viability (UT-SCC-24A [1]; [13]): 62.4 ± 10%
drug sensitivity score (UT-SCC-106A; [9]): 15.3 ± 2.4 DSS
drug sensitivity score (UT-SCC-106A; [10]): 0.6 ± 0.6 DSS
drug sensitivity score (UT-SCC-106A; [11]): 16.9 ± 1.2 DSS
drug sensitivity score (UT-SCC-106A; [12]): 3.1 ± 2.4 DSS
drug sensitivity score (UT-SCC-106A; [13]): 17.3 ± 0.72 DSS
drug sensitivity score (UT-SCC-14; [9]): 9.3 ± 2.1 DSS
drug sensitivity score (UT-SCC-14; [10]): 6.63 ± 3.8 DSS
drug sensitivity score (UT-SCC-14; [11]): 6.5 ± 3.7 DSS
drug sensitivity score (UT-SCC-14; [12]): 3.43 ± 1.8 DSS
drug sensitivity score (UT-SCC-14; [13]): 2.23 ± 1.9 DSS
drug sensitivity score (UT-SCC-24B; [9]): 11 ± 1 DSS
drug sensitivity score (UT-SCC-24B; [10]): 10.3 ± 2.3 DSS
drug sensitivity score (UT-SCC-24B; [11]): 10.1 ± 1.1 DSS
drug sensitivity score (UT-SCC-24B; [12]): 6.67 ± 1.4 DSS
drug sensitivity score (UT-SCC-24B; [13]): 13.8 ± 0.95 DSS
drug sensitivity score (UT-SCC-28 [2]; [9]): 5.9 ± 1.1 DSS
drug sensitivity score (UT-SCC-28 [2]; [10]): 3.83 ± 3.9 DSS
drug sensitivity score (UT-SCC-28 [2]; [11]): 7.33 ± 3.5 DSS
drug sensitivity score (UT-SCC-28 [2]; [13]): 4.33 ± 1.3 DSS
drug sensitivity score (UT-SCC-40; [9]): 18.4 ± 4.2 DSS
drug sensitivity score (UT-SCC-40; [10]): 13.4 ± 2.6 DSS
drug sensitivity score (UT-SCC-40; [11]): 15.7 ± 2.8 DSS
drug sensitivity score (UT-SCC-40; [12]): 10.9 ± 1.8 DSS
drug sensitivity score (UT-SCC-40; [13]): 11.3 ± 3.5 DSS
drug sensitivity score (UT-SCC-42A [3]; [9]): 7.6 ± 5.4 DSS
drug sensitivity score (UT-SCC-42A [3]; [10]): 2.57 ± 2.8 DSS
drug sensitivity score (UT-SCC-42A [3]; [11]): 10.5 ± 0.9 DSS
drug sensitivity score (UT-SCC-42A [3]; [12]): 6.97 ± 0.8 DSS
drug sensitivity score (UT-SCC-42A [3]; [13]): 5.87 ± 3.6 DSS
drug sensitivity score (UT-SCC-42B; [9]): 17.6 ± 2.3 DSS
drug sensitivity score (UT-SCC-42B; [11]): 9.67 ± 0.84 DSS
drug sensitivity score (UT-SCC-42B; [12]): 1.4 ± 1.4 DSS
drug sensitivity score (UT-SCC-42B; [13]): 3.77 ± 2.9 DSS
drug sensitivity score (UT-SCC-44; [9]): 18.2 ± 0.7 DSS
drug sensitivity score (UT-SCC-44; [10]): 4.27 ± 1.7 DSS
drug sensitivity score (UT-SCC-44; [11]): 12.5 ± 1.8 DSS
drug sensitivity score (UT-SCC-44; [12]): 5.07 ± 3.6 DSS
drug sensitivity score (UT-SCC-44; [13]): 10.2 ± 1.6 DSS
drug sensitivity score (UT-SCC-73; [9]): 19.8 ± 3.1 DSS
drug sensitivity score (UT-SCC-73; [10]): 15.4 ± 3.3 DSS
drug sensitivity score (UT-SCC-73; [11]): 18.7 ± 3.7 DSS
drug sensitivity score (UT-SCC-73; [12]): 14.6 ± 1.9 DSS
drug sensitivity score (UT-SCC-73; [13]): 16.1 ± 3.1 DSS
drug sensitivity score (UT-SCC-81 [4]; [9]): 31.1 ± 6 DSS
drug sensitivity score (UT-SCC-81 [4]; [10]): 3.93 ± 0.58 DSS
drug sensitivity score (UT-SCC-81 [4]; [11]): 18.2 ± 2.1 DSS
drug sensitivity score (UT-SCC-81 [4]; [12]): 4.77 ± 4 DSS
drug sensitivity score (UT-SCC-81 [4]; [13]): 7.57 ± 2.1 DSS
drug sensitivity score (UT-SCC-8; [9]): 9.37 ± 3.3 DSS
drug sensitivity score (UT-SCC-8; [10]): 3.9 ± 6.8 DSS
drug sensitivity score (UT-SCC-8; [11]): 6.63 ± 5 DSS
drug sensitivity score (UT-SCC-8; [12]): 4.7 ± 4 DSS
drug sensitivity score (UT-SCC-8; [13]): 4.93 ± 4 DSS

relative IC50 (UT-SCC-28 [5]; [10]): 4.01 nM
relative IC50 (UT-SCC-42A [6]; [9]): 6.44 nM
relative IC50 (UT-SCC-42A [6]; [10]): 6.31 nM
relative IC50 (UT-SCC-42A [6]; [11]): 1.65 nM
relative IC50 (UT-SCC-42A [6]; [13]): 4.54 nM
relative IC50 (UT-SCC-81 [7]; [10]): 2.46 nM
relative IC50 (UT-SCC-81 [7]; [11]): 1.38 nM
relative IC50 (UT-SCC-24A [8]; [10]): 2.61 nM
relative IC50 (UT-SCC-24A [8]; [12]): 3.5 nM
relative IC50 (UT-SCC-24A [8]; [13]): 1.98 nM
Compound: CO[C@H]1C[C@@H]2CC[C@@H](C)[C@@](O)(O2)C(=O)C(=O)N2CCCC[C@H]2C(=O)O[C@H]([C@H](C)C[C@@H]2CC[C@@H](OP(C)(C)=O)[C@H](OC)C2)CC(=O)[C@H](C)/C=C(\C)[C@@H](O)[C@@H](OC)C(=O)[C@H](C)C[C@H](C)/C=C/C=C/C=C/1C [Ridaforolimus]
maximal % inhibition of viability (UT-SCC-24A [1]; [9]): 56.1 ± 36%
maximal % inhibition of viability (UT-SCC-24A [1]; [10]): 35.7 ± 4%
maximal % inhibition of viability (UT-SCC-24A [1]; [11]): 29.4 ± 3.8%
maximal % inhibition of viability (UT-SCC-24A [1]; [12]): 32.7 ± 3.6%
maximal % inhibition of viability (UT-SCC-24A [1]; [13]): 33 ± 5.9%
drug sensitivity score (UT-SCC-106A; [9]): 4.2 ± 1.4 DSS
drug sensitivity score (UT-SCC-106A; [10]): 2.63 ± 0.21 DSS
drug sensitivity score (UT-SCC-106A; [11]): 6.4 ± 3.5 DSS
drug sensitivity score (UT-SCC-106A; [12]): 2.9 ± 1.1 DSS
drug sensitivity score (UT-SCC-106A; [13]): 7.57 ± 1.7 DSS
drug sensitivity score (UT-SCC-14; [9]): 13.8 ± 3.1 DSS
drug sensitivity score (UT-SCC-14; [10]): 15.2 ± 1.2 DSS
drug sensitivity score (UT-SCC-14; [11]): 12.9 ± 1.5 DSS
drug sensitivity score (UT-SCC-14; [12]): 13 ± 2.4 DSS
drug sensitivity score (UT-SCC-14; [13]): 11.9 ± 2.8 DSS
drug sensitivity score (UT-SCC-24B; [9]): 2.9 ± 2.8 DSS
drug sensitivity score (UT-SCC-24B; [10]): 7.87 ± 0.8 DSS
drug sensitivity score (UT-SCC-24B; [11]): 3.8 ± 0.66 DSS
drug sensitivity score (UT-SCC-24B; [12]): 4.63 ± 1.4 DSS
drug sensitivity score (UT-SCC-24B; [13]): 5.37 ± 2 DSS
drug sensitivity score (UT-SCC-28 [2]; [9]): 4.87 ± 2.8 DSS
drug sensitivity score (UT-SCC-28 [2]; [10]): 4.37 ± 4 DSS
drug sensitivity score (UT-SCC-28 [2]; [11]): 6.87 ± 2.6 DSS
drug sensitivity score (UT-SCC-28 [2]; [13]): 6.37 ± 3.5 DSS
drug sensitivity score (UT-SCC-40; [9]): 4.97 ± 2.8 DSS
drug sensitivity score (UT-SCC-40; [10]): 7.83 ± 3.9 DSS
drug sensitivity score (UT-SCC-40; [11]): 4.8 ± 0.78 DSS
drug sensitivity score (UT-SCC-40; [12]): 4.23 ± 0.46 DSS
drug sensitivity score (UT-SCC-40; [13]): 3.77 ± 0.47 DSS
drug sensitivity score (UT-SCC-42A [3]; [9]): 3.43 ± 0.55 DSS
drug sensitivity score (UT-SCC-42A [3]; [10]): 5.73 ± 1.1 DSS
drug sensitivity score (UT-SCC-42A [3]; [11]): 6.43 ± 1.4 DSS
drug sensitivity score (UT-SCC-42A [3]; [12]): 5.2 ± 1.3 DSS
drug sensitivity score (UT-SCC-42A [3]; [13]): 5.6 ± 2.1 DSS
drug sensitivity score (UT-SCC-42B; [9]): 0.8 ± 0.76 DSS
drug sensitivity score (UT-SCC-42B; [11]): 0.233 ± 0.4 DSS
drug sensitivity score (UT-SCC-42B; [12]): 0.367 ± 0.4 DSS
drug sensitivity score (UT-SCC-42B; [13]): 0.4 ± 0.36 DSS
drug sensitivity score (UT-SCC-44; [9]): 6.7 ± 3.6 DSS
drug sensitivity score (UT-SCC-44; [10]): 6.23 ± 0.99 DSS
drug sensitivity score (UT-SCC-44; [11]): 10.7 ± 2.2 DSS
drug sensitivity score (UT-SCC-44; [12]): 11.2 ± 1.4 DSS
drug sensitivity score (UT-SCC-44; [13]): 9.63 ± 3 DSS
drug sensitivity score (UT-SCC-73; [9]): 7.23 ± 3 DSS
drug sensitivity score (UT-SCC-73; [10]): 8.57 ± 6 DSS
drug sensitivity score (UT-SCC-73; [11]): 6.9 ± 1.3 DSS
drug sensitivity score (UT-SCC-73; [12]): 8 ± 0.79 DSS
drug sensitivity score (UT-SCC-73; [13]): 4.93 ± 0.94 DSS
drug sensitivity score (UT-SCC-81 [4]; [9]): 8.6 ± 4.5 DSS
drug sensitivity score (UT-SCC-81 [4]; [10]): 11.8 ± 3.1 DSS
drug sensitivity score (UT-SCC-81 [4]; [11]): 9.37 ± 2.3 DSS
drug sensitivity score (UT-SCC-81 [4]; [12]): 10.9 ± 4 DSS
drug sensitivity score (UT-SCC-81 [4]; [13]): 8.77 ± 5 DSS
drug sensitivity score (UT-SCC-8; [9]): 9.67 ± 4 DSS
drug sensitivity score (UT-SCC-8; [10]): 4.03 ± 1 DSS
drug sensitivity score (UT-SCC-8; [11]): 9.27 ± 3.7 DSS
drug sensitivity score (UT-SCC-8; [12]): 12.5 ± 4.2 DSS
drug sensitivity score (UT-SCC-8; [13]): 10.2 ± 3.6 DSS
